From patent US20240368139A1, “NOVEL MODULATORS OF EHMT1 AND EHMT2 AND THERAPEUTIC USE THEREOF” (Tango Therapeutics, Inc., priority 2021, published 2024)
Read-outs that look alike come from different tables or passages of the source.

Assays:
human EHMT1 982-1266 = molecular target: T1, human EHMT1 982-1266 (Homo sapiens, UniProt Q9H9B1); test: EHMT1 enzyme assay on histone peptide substrate (3H-SAM SPA); settings: EHMT1 IC50, recombinant human EHMT1 982-1266, histone peptide substrate
T1 sequence (Q9H9B1 982-1266): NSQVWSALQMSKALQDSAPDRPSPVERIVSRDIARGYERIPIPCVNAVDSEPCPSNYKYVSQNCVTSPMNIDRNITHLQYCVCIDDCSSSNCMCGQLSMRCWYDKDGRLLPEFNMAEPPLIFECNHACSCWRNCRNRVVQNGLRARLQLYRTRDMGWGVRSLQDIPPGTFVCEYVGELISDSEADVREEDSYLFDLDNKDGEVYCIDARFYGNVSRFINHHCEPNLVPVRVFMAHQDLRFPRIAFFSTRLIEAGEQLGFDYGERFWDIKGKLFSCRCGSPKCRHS

hERG potassium channels = hERG potassium channels (Homo sapiens, UniProt Q12809); test: In vitro hERG assay (SyncroPatch whole-cell recording); settings: room temperature
Method: CHO cells stably expressing hERG potassium channels from Sophion Biosciences were used for this test. The cells were cultured in a humidified and air-controlled (5% CO2) incubator at 37° C.
The CHO hERG Culture Medium consisted of 500 mL Ham's F12 (Invitrogen), 50 mL FBS (HyClone), 1 mL G418/Geneticin (Invitrogen, and 1 mL Hygromycin B (Invitrogen)
The CHO cells which were at least two days after plating and more than 75% confluent would be used for experiments. Before testing, cells were harvested using TrypLE and resuspended in the physiological solution at the room temperature.
For the electrophysiological recordings the following solutions were used (Table 5). The physiological solution and external solution were prepared at least one month. The intracellular solution was prepared in batches aliquoted, and stored at 4° C. until used.
Test compounds were dissolved in 100% DMSO to obtain stock solutions for different test concentrations. Then the stock solutions were further diluted into external solution to achieve final concentrations for testing. Visual check for precipitation was conducted before testing. Final DMSO concentration in external solution was not more than 0.30% for the test compounds.
Voltage command protocol: From this holding potential of −80 mV, the voltage was first stepped to −50 mV for 80 ms for leak subtraction, and then stepped to +20 mV for 4800 ms to open hERG channels. After that, the voltage was stepped back down to −50 mV for 5000 ms, causing a “rebound” or tail current, which was measured and collected for data analysis. Finally, the voltage was stepped back to the holding potential (−80 mV, 1000 ms). This voltage command protocol was repeated every 20000 msec. This command protocol was performed continuously during the test (vehicle control and test compound).
hERG SyncroPatch assay was conducted at room temperature. The Setup, Prime Chip, Catch and Seal Cells, Amplifier Settings, Voltage and Application Protocols were established with Biomek Software (Nanion). One addition of 40 μL of the vehicle was applied, followed by 300s for a baseline period. Then the doses of the compounds were added with 40 μL. The exposure of test compound at each concentration was no less than 300s. […] Five concentrations (0.30 μM, 1.00 μM, 3.00 μM, 10.00 μM and 30.00 μM) were tested for each compound. Minimum 2 replicates per concentration were obtained.
Within each well recording, percent of control values were calculated for each test compound concentration current response based on peak current in presence of reference control (current response/peak current)×100%. The Dose-Response curves were fit to the standard Hill equation as shown below:
Where X is the logarithm of concentration, Ipost cpd/Ipre cpa is the normalized peak current amplitude, Top is 1 and Bottom is equal to 0.
Curve-fitting and IC50 calculations were performed by GraphPad Prism 5.0.

human EHMT2 913-1193 = molecular target: T2, human EHMT2 913-1193 (Homo sapiens, UniProt Q96KQ7); test: EHMT2 enzyme assay on histone peptide substrate (3H-SAM SPA); settings: EHMT2 IC50, recombinant human EHMT2 913-1193, histone peptide substrate
T2 sequence (Q96KQ7 913-1193): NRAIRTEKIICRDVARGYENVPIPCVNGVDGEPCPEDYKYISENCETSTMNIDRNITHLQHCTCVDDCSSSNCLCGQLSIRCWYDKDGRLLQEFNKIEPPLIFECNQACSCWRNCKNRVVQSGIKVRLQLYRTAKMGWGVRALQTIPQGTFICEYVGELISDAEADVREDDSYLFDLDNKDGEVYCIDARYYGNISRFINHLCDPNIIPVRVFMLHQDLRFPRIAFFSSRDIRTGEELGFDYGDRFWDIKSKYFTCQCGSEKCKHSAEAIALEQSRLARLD

H3K9me2 in HCT116 cells = test: HCT116 H3K9me2 in-cell western assay; assay type: cell-based; settings: Homo sapiens, read-out: H3K9me2 ICW IC50
In short: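 H3K9me2 signal (800 nm) was normalized to DRAQ5 DNA stain (700 nm) in an in-cell western. Cells were fixed with paraformaldehyde and probed overnight at 4° C with primary antibody.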

[1] = HCT-116, 72 h, HCT116 cells, 72 hours incubation
[2] = hERG IC50, CHO cells stably expressing hERG

Chain of hERG potassium channels (Q12809 whole entry): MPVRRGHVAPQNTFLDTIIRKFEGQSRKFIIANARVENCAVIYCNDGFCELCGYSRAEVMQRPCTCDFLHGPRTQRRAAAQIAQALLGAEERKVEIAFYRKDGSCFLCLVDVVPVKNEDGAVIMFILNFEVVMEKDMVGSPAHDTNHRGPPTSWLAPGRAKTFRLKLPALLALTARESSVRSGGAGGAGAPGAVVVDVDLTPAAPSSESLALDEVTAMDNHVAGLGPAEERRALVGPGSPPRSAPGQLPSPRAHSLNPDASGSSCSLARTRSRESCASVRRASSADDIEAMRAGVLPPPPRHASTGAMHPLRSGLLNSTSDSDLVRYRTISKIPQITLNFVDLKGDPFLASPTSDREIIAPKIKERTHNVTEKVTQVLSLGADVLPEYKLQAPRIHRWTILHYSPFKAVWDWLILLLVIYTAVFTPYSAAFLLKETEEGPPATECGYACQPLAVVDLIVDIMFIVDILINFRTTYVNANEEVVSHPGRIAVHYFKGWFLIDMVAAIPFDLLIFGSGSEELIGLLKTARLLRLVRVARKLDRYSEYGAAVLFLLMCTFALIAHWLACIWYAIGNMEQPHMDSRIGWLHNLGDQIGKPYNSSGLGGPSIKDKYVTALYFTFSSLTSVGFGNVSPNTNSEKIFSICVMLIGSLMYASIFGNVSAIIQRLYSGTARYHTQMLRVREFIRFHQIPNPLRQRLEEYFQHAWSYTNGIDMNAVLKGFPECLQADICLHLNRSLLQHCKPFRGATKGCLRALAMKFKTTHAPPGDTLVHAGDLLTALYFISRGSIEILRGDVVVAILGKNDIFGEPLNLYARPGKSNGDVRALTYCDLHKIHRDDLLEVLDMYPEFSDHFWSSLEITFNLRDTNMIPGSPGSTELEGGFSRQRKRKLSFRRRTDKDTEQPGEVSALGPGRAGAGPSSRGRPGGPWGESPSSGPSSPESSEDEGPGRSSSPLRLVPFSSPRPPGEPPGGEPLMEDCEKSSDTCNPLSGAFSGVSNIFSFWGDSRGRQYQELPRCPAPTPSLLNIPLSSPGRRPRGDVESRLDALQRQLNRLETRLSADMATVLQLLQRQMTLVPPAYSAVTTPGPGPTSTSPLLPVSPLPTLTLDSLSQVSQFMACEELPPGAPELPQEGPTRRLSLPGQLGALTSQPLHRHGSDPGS

SMILES | IC50 (human EHMT1 982-1266) | IC50 (hERG potassium channels; hERG IC50, SyncroPatch) | IC50 (human EHMT2 913-1193) | IC50 (H3K9me2 in HCT116 cells; [1]) | IC50 (hERG potassium channels; [2]) | IC50 (H3K9me2 in HCT116 cells; HCT-116, 72 h) | IC50 (H3K9me2 in HCT116 cells; HCT-116, HCT116 cells, 72 hours incubation)
CNc1cc(C)nc(Nc2cc3c(c(C4=C[C@H]5CNC[C@H]5C4)c2)OCCO3)n1 (racemic) [Compound 134, N2-[5-(1,2,3,3a,6,6a-hexahydrocyclopenta[c]pyrrol-5-yl)-2,3-dihydro-1,4-benzodioxin-7-yl]-N4,6-dimethyl-pyrimidine-2,4-diamine] | 0.1 to 0.5 µM | > 10 µM | 0.1 to 0.5 µM | 0.1 to 0.5 µM | – | – | –
CNc1cc(C)nc(Nc2cc3c(c(C4=CCNCC(F)C4)c2F)OCC3)n1 (single isomer, unassigned) [Compound 167] | < 0.1 µM | 5 to 10 µM | < 0.1 µM | < 0.1 µM | – | – | –
CNc1cc(C)nc(Nc2cc3c(c(C4=CCNCCC4)c2F)OCC3C)n1 (single isomer, unassigned) [Compound 169] | < 0.1 µM | 5 to 10 µM | < 0.1 µM | < 0.1 µM | – | – | –
CNc1cc(C)nc(Nc2cc3c(c(C4=CCNCCC4)c2F)OCC3C)n1 (single isomer, unassigned) [Compound 170] | – | < 2 µM | – | – | – | – | –
CNc1cc(C)nc(Nc2cc3c(c(C4=CCNC(C)CC4)c2F)OCC3)n1 (single isomer, unassigned) [Compound 183] | < 0.1 µM | > 10 µM | < 0.1 µM | < 0.1 µM | – | – | –
CNc1cc(C)nc(Nc2cc3c(c(C4=CCNC(C)CC4)c2Cl)OCCC3)n1 (single isomer, unassigned) [Compound 357] | < 0.1 µM | 5 to 10 µM | < 0.1 µM | < 0.1 µM | – | – | –
CNc1cc(C)nc(Nc2cc3c(c(C4=CCNC(C)CC4)c2F)OCO3)n1 (single isomer, unassigned) [Compound 369] | < 0.1 µM | 5 to 10 µM | < 0.1 µM | < 0.1 µM | – | – | –
CNc1cc(C)nc(Nc2cc3c(c(C4=CCNCC(O)C4)c2C)OCC3)n1 (single isomer, unassigned) [Compound 370] | < 0.1 µM | > 10 µM | < 0.1 µM | – | – | – | –
CNc1cc(C)nc(Nc2cc3c(c(C4=CCNCC(O)C4)c2F)OCC3)n1 (single isomer, unassigned) [Compound 373] | < 0.1 µM | > 10 µM | < 0.1 µM | < 0.1 µM | – | – | –
CNc1cc(C)nc(Nc2cc3c(c(C4=CCNC(C)CC4)c2Cl)OCC3)n1 (single isomer, unassigned) [Compound 374] | < 0.1 µM | > 10 µM | < 0.1 µM | < 0.1 µM | – | – | –
CNc1cc(C)nc(Nc2cc3c(c(C4=CCNCC(O)C4)c2Cl)OCC3)n1 (single isomer, unassigned) [Compound 384] | – | > 10 µM | < 0.1 µM | – | – | – | –
CNc1cc(C)nc(Nc2cc3c(c(OCCCN4CCCC4)c2)OCC3)n1 [Compound 103, N^4,6-dimethyl-N^2-[7-(3-pyrrolidin-1-ylpropoxy)-2,3-dihydrobenzofuran-5-yl]pyrimidine-2,4-diamine] | 0.1 to 0.5 µM | > 10 µM | 0.5 to 2 µM | 0.1 to 0.5 µM | – | – | –
CNc1cc(C)nc(Nc2cc3c(c(C4=CCNCCC4)c2)OCC3)n1 [Compound 110, N4,6-dimethyl-N2-[7-(2,3,4,7-tetrahydro-1H-azepin-5-yl)-2,3-dihydrobenzofuran-5-yl]pyrimidine-2,4-diamine] | < 0.1 µM | > 10 µM | < 0.1 µM | < 0.1 µM | > 10 µM | – | –
CNc1cc(C)nc(Nc2cc3c(c(C4=CCN(C)CCC4)c2)OCC3)n1 [Compound 111, N4,6-dimethyl-N2-[7-(1-methyl-2,3,4,7-tetrahydroazepin-5-yl)-2,3-dihydrobenzofuran-5-yl]pyrimidine-2,4-diamine] | < 0.1 µM | > 10 µM | < 0.1 µM | < 0.1 µM | > 10 µM | – | –
CNc1cc(C)nc(Nc2cc3c(c(C4=CCNCCC4)c2F)OCC3)n1 [Compound 291, N2-[6-fluoro-7-(2,3,4,7-tetrahydro-1H-azepin-5-yl)-2,3-dihydrobenzofuran-5-yl]-N4,6-dimethyl-pyrimidine-2,4-diamine] | – | > 10 µM | – | < 0.1 µM | > 10 µM | – | –
CNc1cc(C2CC2)nc(Nc2cc3c(c(C4=CCNCCC4)c2)OCC3)n1 [Compound 317] | < 0.1 µM | – | 0.1 to 0.5 µM | < 0.1 µM | – | – | –
Cc1cc(NC2CCC2)nc(Nc2cc3c(c(C4=CCN(C)CCC4)c2)OCC3)n1 [Compound 318] | 0.1 to 0.5 µM | – | 0.5 to 2 µM | 0.1 to 0.5 µM | – | – | –
CCc1cc(NC)nc(Nc2cc3c(c(C4=CCNCCC4)c2)OCC3)n1 [Compound 319] | < 0.1 µM | – | < 0.1 µM | < 0.1 µM | – | – | –

SMILES | IC50 (human EHMT1 982-1266) | IC50 (hERG potassium channels; hERG IC50, SyncroPatch) | IC50 (human EHMT2 913-1193) | IC50 (H3K9me2 in HCT116 cells; [1]) | IC50 (hERG potassium channels; [2]) | IC50 (H3K9me2 in HCT116 cells; HCT-116, 72 h) | IC50 (H3K9me2 in HCT116 cells; HCT-116, HCT116 cells, 72 hours incubation)
Cc1cc(NCC(F)(F)F)nc(Nc2cc3c(c(C4=CCN(C)CCC4)c2)OCC3)n1 [Compound 320] | 0.1 to 0.5 µM | – | 0.5 to 2 µM | 0.1 to 0.5 µM | – | – | –
CCNc1cc(C)nc(Nc2cc3c(c(C4=CCN(C)CCC4)c2)OCC3)n1 [Compound 321] | < 0.1 µM | – | 0.1 to 0.5 µM | 0.1 to 0.5 µM | – | – | –
CNc1cc(C)nc(Nc2cc3c(c(C4=CCN(C)CCC4)c2)CCO3)n1 [Compound 333] | 0.1 to 0.5 µM | – | 0.5 to 2 µM | 0.5 to 2 µM | – | – | –
CNc1cc(C)nc(Nc2cc3c(c(N4C[C@H]5CNC[C@H]5C4)c2)OCCC3)n1 [Compound 338] | 0.1 to 0.5 µM | – | 0.5 to 2 µM | 0.1 to 0.5 µM | – | – | –
CNc1cc(C)nc(Nc2cc3c(c(N4CCCNCC4)c2)OCCC3)n1 [Compound 339] | 0.1 to 0.5 µM | – | 0.5 to 2 µM | 0.1 to 0.5 µM | – | – | –
CNc1cc(C)nc(Nc2cc3c(c(C4C[C@H]5CNC[C@H]5C4)c2)OCCC3)n1 (stereo partly drawn) [Compound 340] | < 0.1 µM | – | 0.1 to 0.5 µM | 0.1 to 0.5 µM | – | – | –
CNc1cc(C)nc(Nc2cc3c(c([C@H]4C[C@H]5CNC[C@H]5C4)c2)OCO3)n1 [Compound 342] | 0.1 to 0.5 µM | – | 0.5 to 2 µM | 0.5 to 2 µM | – | – | –
CNc1cc(C)nc(Nc2cc3c(c(C4CCCNCC4)c2)OCO3)n1 (stereo not drawn) [Compound 343] | 0.1 to 0.5 µM | – | 0.5 to 2 µM | 0.1 to 0.5 µM | – | – | –
CNc1cc(C)nc(Nc2cc3c(c(C4=C[C@H]5CNC[C@H]5C4)c2)OCCC3)n1 [Compound 344] | 0.1 to 0.5 µM | – | 0.5 to 2 µM | 0.1 to 0.5 µM | – | – | –
CNc1cc(C)nc(Nc2cc3c(c(C4=CCNCC4)c2)OCCC3)n1 [Compound 345] | 0.1 to 0.5 µM | – | 0.5 to 2 µM | 0.1 to 0.5 µM | – | – | –
CNc1cc(C)nc(Nc2cc3c(c(C4=CCC(N)CC4)c2)OCCC3)n1 (stereo not drawn) [Compound 346] | 0.1 to 0.5 µM | – | > 2 µM | 0.1 to 0.5 µM | – | – | –
CNc1cc(C)nc(Nc2cc3c(c(C4=C[C@H]5CNC[C@H]5C4)c2)OCO3)n1 [Compound 347] | 0.1 to 0.5 µM | – | 0.5 to 2 µM | 0.1 to 0.5 µM | – | – | –
CNc1cc(C)nc(Nc2cc3c(c(N4C[C@H]5CNC[C@H]5C4)c2F)OCC3)n1 [Compound 351, N2-[6-fluoro-7-[rac-(3aS,6aR)-2,3,3a,4,6,6a-hexahydro-1H-pyrrolo[3,4-c]pyrrol-5-yl]-2,3-dihydrobenzofuran-5-yl]-N4,6-dimethyl-pyrimidine-2,4-diamine] | < 0.1 µM | – | 0.1 to 0.5 µM | 0.1 to 0.5 µM | – | – | –
CNc1cc(C)nc(Nc2cc3c(c(C4=CCNCCC4)c2C)OCCC3)n1 [Compound 353, N4,6-dimethyl-N2-[7-methyl-8-(2,3,4,7-tetrahydro-1H-azepin-5-yl)chroman-6-yl]pyrimidine-2,4-diamine] | < 0.1 µM | – | < 0.1 µM | < 0.1 µM | – | – | –
CNc1cc(C)nc(Nc2cc3c(c(C4=CCNCCC4)c2C)OCO3)n1 [Compound 363] | < 0.1 µM | – | 0.1 to 0.5 µM | < 0.1 µM | – | – | –
CNc1cc(C)nc(Nc2cc3c(c(C4C[C@H]5CNC[C@H]5C4)c2F)OCC3)n1 (stereo partly drawn) [Compound 437, N2-[7-(1,2,3,3a,4,5,6,6a-octahydrocyclopenta[c]pyrrol-5-yl)-6-fluoro-2,3-dihydrobenzofuran-5-yl]-N4,6-dimethyl-pyrimidine-2,4-diamine] | 0.5 to 2 µM | – | 0.5 to 2 µM | 0.1 to 0.5 µM | – | – | –
CNc1cc(C)nc(Nc2ccc(OC)c(C3=CCN(C)CCC3)c2)n1 [Reference Compound A, reference compound] | < 0.1 µM | 5 to 10 µM | – | – | 5 to 10 µM | < 0.1 µM | –
CNc1cc(C)nc(Nc2ccc(OC)c(C3=CCNCCC3)c2)n1 [Reference Compound B, reference compound] | – | 5 to 10 µM | < 0.1 µM | – | 5 to 10 µM | – | < 0.1 µM
